Key:
[1] = Polarity: dissolution in ethanol and dilution with aqueous medium; format: physicochemical
Text: Polarity of HDC-Phenyl Alaninate Ester:

[2] = test system: urushiol contact dermatitis; experiment: Induction of tolerance to poison ivy/poison oak urushiol in the guinea pig contact dermatitis model; format: in vivo, Hartley guinea pigs; details: for erythema at the exposure site / erythema or edema observed: Test #1; for erythema at the exposure site: 24, 48 or 72 hrs post challenge, urushiol 3.0, 4.5 and 6.0 ug; for erythema or edema at the site of urushiol challenge: 24 hours, any of the doses used; for skin lesion scores compared to groups IV and V: all the 3 tests
Text: Animals: Hartley strains of guinea pigs (n=40) were obtained from Harlan, Indianapolis Ind. 46229. The animals were divided in the 5 groups (n=8/group) and treated as described hereunder. These animals were kept in a controlled environment with a 12-hour day and night cycle and provided feed and water ad libitum. Study design: FIG. 8 describes the general procedure for determining the efficacy of the agents produced according to the present invention.
Application sites of urushiol challenge doses on abdominal skin are shown in FIG. 9, and are described below.
Group I. Animals in this group were given the compound (4) (HDC 4-(4-aminophenyl) butyrate ester) via the intramuscular (IM) route; 300 ul of the equivalent of 20 mg/mL solution of the free catechol in 5% ethanol in each hind leg. Two weeks later these animals were sensitized with urushiol (100 uL acetone containing 1.0 mg of urushiol) on the surface skin in the neck region. Two weeks later the animals were challenged with urushiol (15 uL volume acetone containing 3.0 ug, 4.5 ug or 6.0 ug) on the abdominal skin in a volume of 15 uL. The vehicle contained 15 uL of acetone (see diagram 2). The animals were tested 3 times after sensitization: Test #1 at two weeks post sensitization, test #2 conducted at four weeks post sensitization and test #3 was conducted twelve weeks post sensitization.
Group II. Animals were given 300 uL of the equivalent of 20 mg/mL solution of the free catechol in 5% ethanol of HDC Phenyl alaninate ester (compound 3) via the IM route in each hind leg (total 600 uL). This was followed by sensitization with urushiol on the neck, and then tested with urushiol challenge on the abdominal skin as described for group I.
Group III. Animals were given 300 uL of the equivalent of 20 mg/mL solution of the free catechol in 5% ethanol of HDC Hemiglutarate ester (compound 5) via the IM route in each hind leg. This was followed, two weeks later, by sensitization with (urushiol 100 uL) on the neck, followed by abdominal skin test as described for group I.
Group IV. Animals were given 300 uL of vehicle (5% ethanol) via the IM route in each of the hind legs. This was followed, two weeks later, by sensitization and then followed by abdominal skin test as described for group I.
Group V. Animals in this group were given PBS (300 uL in each of the hind legs) via the IM route. This was followed two weeks later by sensitization and then followed by abdominal skin test as described for group I.
After challenging the animals with urushiol on their abdominal skin, the severity of Erythema and Edema were observed and scored according to the Draize scoring system as shown below. The scores were recorded at 24, 48 and 72 hrs post urushiol skin application.

[3] = Test #2, 48 hours, urushiol challenge dose 4.5 ug
[4] = Test #2, 48 hours, urushiol challenge dose 6.0 ug

| SMILES | appearance of solution (polarity) ([1]; 10 mg dissolved in 50 ul of ethanol, adjusted to 1 ml with water) | erythema at the exposure site [2] | erythema or edema observed ([2]; 48 hours post challenge) | erythema or edema observed ([2]; 72 hours post challenge) | skin lesion score ([2]; Test #2, 48 hours, all challenge doses) | erythema or edema at the site of urushiol challenge ([2]; Test #3) | lesion score ([2]; Test #3, 48 hours) | skin lesion scores compared to groups IV and V [2] | appearance of solution (polarity) ([1]; 10 mg as a HCl salt in 50 ul of ethanol, adjusted to 1 mL with water (10 mg/mL)) | total skin lesion score [2, 3] | total skin lesion score [2, 4] | appearance of solution (polarity) ([1]; 10 mg in 50 ul of ethanol, adjusted to 1 ml with potassium phosphate buffer (pH 8)) | total lesion score ([2]; Test #2, 72 hours) |
| --- | --- | --- | --- | --- | --- | --- | --- | --- | --- | --- | --- | --- | --- |
| CCCCCCCCCCCCCCCCCc1cccc(OC(=O)[C@@H](N)Cc2ccccc2)c1OC(=O)[C@@H](N)Cc1ccccc1 [Compound 3, HDC-Phenyl Alaninate Ester] | formed a homogenous solution | did not show any or showed very slight erythema | no erythema or edema was observed | no erythema or edema was observed | ≤ 1.0 | did not show erythema or edema | ≤ 1.0 | negligible |  |  |  |  |  |
| CCCCCCCCCCCCCCCCCc1cccc(OC(=O)CCCc2ccc(N)cc2)c1OC(=O)CCCc1ccc(N)cc1 [Compound 4] |  | did not show any or showed very slight erythema | no erythema or edema was observed | no erythema or edema was observed |  | did not show erythema or edema |  | negligible | clear solution | 1.5 | 1.5 |  |  |
| CCCCCCCCCCCCCCCCCc1cccc(OC(=O)CCCC(=O)O)c1OC(=O)CCCC(=O)O [Compound 5, 5,5′(3-heptadecyl-1,2-phenylene)bis(oxy)bis(5-oxopentanoic acid)] |  | did not show any or showed very slight erythema | no erythema or edema was observed | no erythema or edema was observed |  | did not show erythema or edema |  | negligible |  | 1.0 | 2.5 | formed a homogenous solution | ≤ 2.0 |

Reference: patent US10322103B2, “Compositions for prevention/prophylactic treatment of poison ivy dermatitis” (The University of Mississippi, priority 2008, dated 2019)
